From patent US9326970B2, “Choline esters” (Encore Health, LLC, priority 2009, dated 2016)

Assays:
[1] = tested on: human umbilical vein endothelial cells (HUVEC, first passage); assay: In vitro toxicology: cell viability (MultiTox-Fluor or Live/Dead assay); type: cell-based; settings: doses ranging from 0.1 μM to 100 μM
Protocol: Cell viability was determined using human umbilical vein endothelial cells (HUVEC, first passage). Cells were treated with the active agent in doses ranging from 0.1 μM to 100 μM. The number of live and dead cells was determined using the MultiTox-Fluor assay (Promega) or Live/Dead® assay (Invitrogen). Logistic plots were used to determine the compound's LD50 value. Lipoic acid was not cytotoxic the concentration range.

mouse lenses = assay: Increase in elasticity: lens organ culture, change in lens diameter under coverslip (ΔD)
Excerpt: FIG. 4 depicts a scatter plot of the change in ΔD (micrometers) in the absence (control) and presence of lipoic acid in lens organ culture experiments. […] Statistical values are highly significant at p<0.0001 by unpaired t-test and by Kruskal Wallis test, which compared medians of each data set. The relative change in Young's modulus (E) can be calculated as the cubic value derived from the ΔD of the control divided by the ΔD of the experimental or E fractional change=(ΔD con/ΔDexp)^3.
Increase in Elasticity: Pairs of mouse lenses were incubated in medium 200 supplemented with an antibiotic, an antimycotic, the presence or absence of lipoic acid (concentrations ranging from 0.5 μM to 500 μM) for 8-15 hours. Each lens was removed from medium, weighed, and photographed on a micrometer scale. A coverslip of known weight (0.17899±0.00200 g) was placed on the lens, and the lens was photographed again on the micrometer scale. The diameter of each lens with and without the coverslip was determined from the photographs. The change in lens diameter produced by the force (coverslip) was computed ΔD=(Dwithcoverslip−Dwithoutcoverslip).

[2] = tested on: protein disulfides in the mouse lenses; assay: Decrease in disulfide bonds: protein SH/SS groups in lens homogenates
Protocol: FIG. 5 depicts a scattergram of the percent of the total protein SH groups in disulfide bonds. Free SH groups were alkylated with 4-acetamido-4′-maleimidylstilbene-2,2′-sulfonic acid (c, 1 μM, 5 μM, 9.6 μM, 50 μM, 96 μM) or 7-diethylamino-3-(4′maleimidylphenyl)-4-methyl coumarin (500 μM, and 500 μM c). Following removal of the first alkylating agent, the S—S bonds were reduced and alkylated with fluorescein-5-maleimide. Absorption spectra were used to calculated total protein (A280 nm), free protein SH (A322 or A384), and protein SS (A490) using the appropriate extinction coefficients. The symbol ‡ indicates statistically significant difference of mean with mean of control (c, p≦0.05).
Mouse lenses were homogenized in a denaturing buffer containing a fluorescent alkylating agent to modify the free SH groups. After removing the alkylating agent homogenates were reduced and alkylated with a different fluorescent alkylating agent. Absorption spectra of the modified proteins were used to calculate free protein SH and protein SS groups.

SMILES: O=C(O)CCCCC1CCSS1 (centres unmarked) [Lipoic acid, 5-(1,2-dithiolan-3-yl)pentanoic acid]
- cytotoxicity (cell viability, LD50 from logistic plots) [1]: not cytotoxic
- change in ΔD (micrometers) compared to controls, FIG. 4 (mouse lenses; lens organ culture, data sets marked ‡, p<0.0001 by unpaired t-test and Kruskal Wallis test): significantly larger changes in ΔD
- change in ΔD (lens diameter with coverslip minus without) (mouse lenses; lipoic acid at concentrations ≧9.6 μM, 8-15 hours incubation, vs control, p<0.0001): statistically significant increase in ΔD
- percent of the total protein SH groups in disulfide bonds, FIG. 5 ([2]; 500 μM lipoic acid vs 500 μM control, p=0.027): significantly different
- protein disulfides ([2]; lipoic acid at concentrations ≧9.6 μM, mouse lenses with a significant increase in ΔD): statistically significant decrease in protein disulfides
